Assay results from patent publication US20150376225A1, “NOVEL COMPOUNDS OF 11BETA-HYDROXY-STEROIDS FOR USE IN MITOCHONDRIA BIOGENESIS AND DISEASES ASSOCIATED WITH MITOCHONDRIAL DYSFUNCTION OR DEPLETION” (SPHAERA PHARMA PVTD. LTD., priority 2013, published 2015).

tested on: oxidative phosphorylation complex I; experiment: Slot blot method, complex I normalized to GAPDH; format: cell-based, bovine; settings: not given
Procedure: Following treatment, bovine aortic endothelial cells grown in 12 well plates are scrapped in 50 μl of lysis buffer (1% Triton X-100, 20 mm Tris, 140 mm NaCl, 2 mm EDTA, and 0.1% SDS) with protease and phosphatase inhibitor cocktails (P2714 and P2850, Sigma-Aldrich) supplemented with 0.15 mm PMSF, 5 mm Na3VO4 and 3 mm NaF. Homogenates are passed through an insulin syringe five times, sonicated for 30 min at 4° C. and centrifuged (12,000 g) for 10 min. The total protein content is measured in the supernatant using the Bradford method. A total of 10-20 μg of protein are loaded into a pre-assembled slot blot apparatus to be transferred under vacuum onto polyvinyl membranes, incubated for 1 h in blocking solution (5% non-fat dry milk in TBS plus 0.1% Tween 20 (TBS-T)), followed by a overnight incubation at 4° C. with primary antibodies (oxidative phosphorylation complex I or GAPDH). Primary antibodies are diluted in TBS-T plus 5% non-fat dry milk. Membranes are washed (3× for 5 min) in TBS-T and incubated 1 h at room temperature in the presence of HRP-conjugated secondary antibodies diluted in blocking solution. Membranes are again washed 3 times in TBS-T, and the immunoblots developed using an ECL Plus detection kit (Amersham-GE). Band intensities are digitally quantified using ImageJ software (http://www.nih.gov). Complex I values are normalized for loading differences using GAPDH after stripping and reprobing of the membrane. All Western blot images to be obtained will be within the linear range of X-ray film to ensure computer-assisted densitometry accuracy.

SMILES | Slot Blot Assay
CC(=O)[C@H]1CC[C@H]2[C@@H]3CC=C4C[C@@H](O)CC[C@]4(C)[C@H]3[C@@H](O)C[C@]12C [Compound 1002, 1-((3S,8S,9S,10R,11S,13S,14S,17S)-3,11-dihydroxy-10,13-dimethyl-2,3,4,7,8,9,10,11,12,13,14,15,16,17-tetradecahydro-1H-cyclopenta[a]phenanthren-17-yl)ethanone] | + (+ indicates >150% HCAEC)
COC(=O)[C@H]1CC[C@H]2[C@@H]3CC=C4C[C@@H](O)CC[C@]4(C)[C@H]3[C@@H](O)C[C@]12C [Compound 1004, (3S,8S,9S,10R,11S,13S,14S,17S)-methyl 3,11-dihydroxy-10,13-dimethyl-2,3,4,7,8,9,10,11,12,13,14,15,16,17-tetradecahydro-1H-cyclopenta[a]phenanthrene-17-carboxylate] | + (+ indicates >150% HCAEC)
CC[C@H]1CC[C@H]2[C@@H]3CC=C4C[C@@H](O)CC[C@]4(C)[C@H]3[C@@H](O)C[C@]12C [Compound 1009, (3S,8S,9S,10R,11S,13R,14S,17S)-17-ethyl-10,13-dimethyl-2,3,4,7,8,9,10,11,12,13,14,15,16,17-tetradecahydro-1H-cyclopenta[a]phenanthrene-3,11-diol] | + (+ indicates >150% HCAEC)
Cc1noc([C@H]2CC[C@H]3[C@@H]4CCC5=CC(=O)CC[C@]5(C)[C@H]4[C@@H](O)C[C@]23C)n1 [Compound 1012, (8S,9S,10R,11S,13S,14S,17S)-11-hydroxy-10,13-dimethyl-17-(3-methyl-1,2,4-oxadiazol-5-yl)-6,7,8,9,10,11,12,13,14,15,16,17-dodecahydro-1H-cyclopenta[a]phenanthren-3(2H)-one] | + (+ indicates >150% HCAEC)

tested on: AMPK; experiment: AMPK activation, cell based ELISA in Hep G2 cells; settings: 1 h incubation, DMSO control as 100%
Procedure: AMPK Activation Protocol:
AMPK activation potential of the compounds was evaluated using cell based ELISA.
Hepatoma (Hep G2) liver cells were maintained in a T 75 culture flask-containing 25 mM DMEM+10% fetal calf serum. The cells were maintained in a T 75 culture flask-containing medium (DMEM+10% fetal calf serum). On reaching a confluence of 70 to 80%, the cells were seeded in a 96 well plate at a density of 40,000 cells per well in 25 mM DMEM+10% FCS medium. The plates were then incubated at 37° C. with 5% CO2 for 24 hours. Various concentrations of drugs were prepared in DMSO and diluted to required concentration with the medium and incubated at 37° C. with 5% CO2 for 30 min and 1 h for Epicatechin analogs and 11-BHP analogs respectively. Metformin was used as positive control. Cells were fixed with 4% formaldehyde for 30 minutes at room temperature and washed three times with PBS containing 0.1% Triton X-100. Endogenous peroxidase was quenched with 1% H2O2 in PBS-T (0.1% Tween 20) for 30 minutes and washed three times in PBS-T. Cells were blocked with 1% BSA in PBS-T for 1 hour.

SMILES | % activation pAMPK at 1 nM [%]
CC(O)C1CCC2C3CCC4CC5(CC[C@]4(C)C3[C@@H](O)C[C@]12C)OCCO5 (stereo partly drawn) [Compound 1039, (10S,11S,13S)-17-(1-hydroxyethyl)-10,13-dimethylhexadecahydrospiro[cyclopenta[a]phenanthrene-3,2′-[1,3]dioxolan]-11-ol] | 100
CC(O)[C@H]1CCC2C3CCC4C[C@@H](O)CC[C@]4(C)C3[C@@H](O)C[C@@]21C (stereo partly drawn) [Compound 1040, (3S,10S,11S,13S,17S)-17-(1-hydroxyethyl)-10,13-dimethylhexadecahydro-1H-cyclopenta[a]phenanthrene-3,11-diol] | 95
CC[C@H]1CCC2C3CC=C4C[C@@H](O)CC[C@]4(C)C3[C@@H](O)C[C@@]21C (stereo partly drawn) [Compound 1041, (3S,10R,11S,13R,17S)-17-ethyl-10,13-dimethyl-2,3,4,7,8,9,10,11,12,13,14,15,16,17-tetradecahydro-1H-cyclopenta[a]phenanthrene-3,11-diol] | 95
CC(=O)[C@H]1CCC2C3CCC4C[C@@H](O)CC[C@]4(C)C3[C@@H](O)C[C@@]21C (stereo partly drawn) [Compound 1042, 1-((3S,10S,11S,13S,17S)-3,11-dihydroxy-10,13-dimethylhexadecahydro-1H-cyclopenta[a]phenanthren-17-yl)ethan-1-one] | 96
[2H][C@]1(O)CC[C@@]2(C)C(=CCC3C2[C@@H](O)C[C@@]2(C)C3CC[C@@H]2C(C)=O)C1 (stereo partly drawn) [Compound 1045, 1-((3S,10R,11S,13S,17S)-3,11-dihydroxy-10,13-dimethyl-2,3,4,7,8,9,10,11,12,13,14,15,16,17-tetradecahydro-1H-cyclopenta[a]phenanthren-17-yl-3-d)ethan-1-one] | 116
CC(=O)[C@H]1CCC2C3CC=C4C[C@@H](O)CC[C@]4(C)C3[C@@](C)(O)C[C@@]21C (stereo partly drawn) [Compound 1047, 1-((3S,10R,11S,13S,17S)-3,11-dihydroxy-10,11,13-trimethyl-2,3,4,7,8,9,10,11,12,13,14,15,16,17-tetradecahydro-1H-cyclopenta[a]phenanthren-17-yl)ethan-1-one] | 119
C[C@]12C[C@H](O)C3C(CCC4=CC(=O)CC[C@@]43C)C1CCC2C(=O)CO (stereo partly drawn) [Compound 1048, (10R,11S,13S)-11-hydroxy-17-(2-hydroxyacetyl)-10,13-dimethyl-1,2,6,7,8,9,10,11,12,13,14,15,16,17-tetradecahydro-3H-cyclopenta[a]phenanthren-3-one] | 108

tested on: BCAEC; experiment: 3-(4,5-Dimethylthiazol-2-yl)-2,5-diphenyltetrazolium bromide (MTT) assay, mitochondrial function (MTT/Methylene Blue ratio); format: cell-based, bovine; settings: treated for 48 hours
Procedure: 3-(4,5-Dimethylthiazol-2-yl)-2,5-diphenyltetrazolium bromide (MTT) assay
6,000 BCAEC were seeded into clear 96-well flat bottom plates at 100 μl per well. After starvation, cells were treated for 48 hours with the corresponding compounds. Compounds were changed every 12 and 24 hours (with 100 μl per well of fresh medium). Following the treatment medium was aspirated from plates, and washed once with 100 μl HBSS, subsequently 100 μl per well 0.5 mg/ml MTT in phenol red-free DMEM was added. Plates were incubated for 1 hour at 37° C., and this was followed by aspiration of MTT solution, addition of 100 μl per well DMSO to dissolve formazan crystals, and incubation at 37° C. for 15 minutes. Mitochondrial function was quantified by absorbance was measured at 540 nm with background substraction at 670 nm using. After MTT absorbance measure, media was removed and cells quantify in each well as described elsewhere (Oliver et al, 1989) with some modifications. In brief, 100 μl of 10% formol saline to each well was added, and incubated at 4° C. for 24 hours. Next, formol solution was removed from the wells and 100 μl of filtered 0.1% (w/v) Methylene Blue in 0.01 M borate buffer (pH 8.5) was added to each well. After 30 minutes, excess dye was removed and washed off 3 times with 0.01 M borate buffer (pH 8.5). […] The plates were then gently shaken and incubated for 15 minutes under a bench rocker. Absorbance was measured at 650 nm. The MTT/Methylene Blue ratio was used to quantify the mitochondrial function. Oliver M H, Harrison N K, Bishop J E, Cole P J, Lauren G J. A rapid and convenient assay for counting cells cultured in microwell plates: application for assessment of growth factors. J Cell Sci. 1989, 3:513-8.

SMILES | MTT Assay
CC1([C@H]2CC[C@H]3[C@@H]4CC=C5C[C@@H](O)CC[C@]5(C)[C@H]4[C@@H](O)C[C@]23C)OCCO1 [Compound 1001, (3S,8S,9S,10R,11S,13S,14S,17S)-10,13-dimethyl-17-(2-methyl-1,3-dioxolan-2-yl)-2,3,4,7,8,9,10,11,12,13,14,15,16,17-tetradecahydro-1H-cyclopenta[a]phenanthrene-3,11-diol] | + (+ indicates >110%)
CC(O)[C@H]1CC[C@H]2[C@@H]3CC=C4C[C@@H](O)CC[C@]4(C)[C@H]3[C@@H](O)C[C@]12C (stereo partly drawn) [Compound 1003, (3S,8S,9S,10R,11S,13S,14S,17S)-17-(1-hydroxyethyl)-10,13-dimethyl-2,3,4,7,8,9,10,11,12,13,14,15,16,17-tetradecahydro-1H-cyclopenta[a]phenanthrene-3,11-diol] | + (+ indicates >110%)
CC(=O)[C@H]1CC[C@H]2[C@@H]3CCC4=CC(=O)CC[C@]4(C)[C@H]3[C@@H](O)C[C@]12C [Compound 1007, (8S,9S,10R,11S,13S,14S,17S)-17-acetyl-11-hydroxy-10,13-dimethyl-6,7,8,9,10,11,12,13,14,15,16,17-dodecahydro-1H-cyclopenta[a]phenanthren-3(2H)-one] | + (+ indicates >110%)
